Source: article PMC11278161 (Marine Drugs, 2024)
pIC50: −log10 of the molar value.

Tested on: A549 cells
Assay: cells
Conditions: Homo sapiens, A549, 72 h, read-out: IC50, cytotoxicity for A549

CC[C@@]1(O)C(=O)OCc2c1cc1n(c2=O)Cc2cc3ccccc3nc2-1 [CPT, Camptothecin]
pIC50: 6.59
